The values below are quoted from earlier work in paper PMC5278571, “Optimal doses of caspofungin during continuous venovenous hemodiafiltration in critically ill patients” (Critical Care, 2017).

Series [1] relates to Candida and Aspergillus spp., including Candida parapsilosis. The note with it: published MIC90s; cited from earlier work. How it is done: (§1) Taking into account a MIC of 0.1 mg/L [4], and using the target pharmacokinetics/pharmacodynamics (PK/PD) described for micafungin, we would have reac ...
The subject of a further series is Candida. The note with it: MIC taken for the PK/PD target calculation; cited from earlier work. Here is the method:
as §1

Values after ≈ are worked out from the molar mass of the structure shown.

With `CC[C@H](C)C[C@H](C)CCCCCCCCC(=O)N[C@H]1C[C@@H](O)[C@@H](NCCN)NC(=O)[C@@H]2[C@@H](O)CCN2C(=O)[C@H]([C@H](O)CCN)NC(=O)[C@H]([C@H](O)[C@@H](O)c2ccc(O)cc2)NC(=O)[C@@H]2C[C@@H](O)CN2C(=O)[C@H]([C@@H](C)O)NC1=O` [caspofungin], the MIC90 (commonly an inhibitory concentration at the 90% level, which refers to growth in some studies and to a panel of isolates in others) in series [1] is 2 µg/mL (≈ 1.83 µM). In addition, the MIC – broadly, the lowest concentration found to suppress growth – with Candida was 0.1 µg/mL (≈ 0.0915 µM).
